Like-named read-outs stand apart in the source and are kept apart here.
How the values were obtained:
[1] = tested on: serum and liver lipid levels in rats; test: Serum and liver lipid levels and relative liver weight in rats (100 mg/kg, 10 days); assay type: in vivo, Male rats of the Wistar strain; details: for response vs control in vivo at 100 mg/kg: Rattus norvegicus, po; for response vs control in vivo at 100 mg/kg / Relative liver weight, relative to Control (100): in parentheses, Control = (100); for Liver lipid levels Ch / Liver lipid levels PL / Liver lipid levels TG / Relative liver weight / Serum lipid levels Ch / Serum lipid levels PL / Serum lipid levels TG: 100 mg/kg p.o. 10 days, Mean ± S.E. (n = 9)
Method: (2) Male rats of the Wistar strain weighing 160-180 g were fed a stock deit (CE-2, Japan CLEA, Tokyo) and water ad libitum. The present compounds and KCD-232 were suspended, respectively, in a 0.5% of CMC solution and give orally to rats once a day at a dose of 100 mg/kg b.w. for 10 days.
Control rats were received the 0.5% CMC solution alone. The diet was withdrawn immediately after the last administration of compounds. Animals were sacrificed by decapitation 4 hr after the last administration and blood was collected, clotted and centrifuged to obtain serum. The liver was excised quickly and weighed. Total lipids were extracted from the serum and liver, and the levels of Ch, TG and PL were determined colorimetrically.

[2] = tested on: serum and liver lipid levels in rats; test: Serum and liver lipid levels and relative liver weight in rats (25 mg/kg, 10 days); assay type: in vivo, male Wistar rats; details: Table 4; for Liver lipid levels Ch / Liver lipid levels PL / Liver lipid levels TG / Relative liver weight / Serum lipid levels Ch / Serum lipid levels PL / Serum lipid levels TG: 25 mg/kg p.o. 10 days, Mean ± S.E. (n = 7); for Liver lipid levels Ch, relative to Control (100) / Liver lipid levels PL, relative to Control (100) / Liver lipid levels TG, relative to Control (100) / Relative liver weight, relative to Control (100) / Serum lipid levels Ch, relative to Control (100) / Serum lipid levels PL, relative to Control (100) / Serum lipid levels TG, relative to Control (100): in parentheses
Method: (3) The present compounds and KCD-232 were orally given to male Wistar rats weighing 160-180 g once a day at a dose of 25 mg/kg b.w. for 10 days. Rats were subjected to fast for 4 hr immediately after the last administration of compounds, thereafter they were sacrificed by decapitation and blood was collected, clotted and centrifuged to obtain serum. The liver was removed quickly and weighed. Total lipids were extracted from the serum and liver, and then the levels of total Ch, TG and PL were determined with colorimetric methods.

in vivo = details: mouse, po, p o, male ICR mice
From the text: The present compounds were given to 6 week-old male mice of the ICR strain and their acute toxicity was examined.

[3] = 240 h, Table 3, read-out: Liver lipid levels PL, relative to Control (100)
[4] = Table 3, read-out: Liver lipid levels Ch, relative to Control (100)
[5] = Table 3, read-out: Liver lipid levels TG, relative to Control (100)
[6] = Table 3, read-out: Serum lipid levels Ch, relative to Control (100)
[7] = Table 3, read-out: Serum lipid levels PL, relative to Control (100)
[8] = Table 3, read-out: Serum lipid levels TG, relative to Control (100)

SMILES | Liver lipid levels Ch [2] [mg/g liver] | Liver lipid levels PL [2] [mg/g liver] | Liver lipid levels TG [2] [mg/g liver] | Relative liver weight [2] [g/100 g b.w.] | Serum lipid levels Ch [2] [mg/dL] | Serum lipid levels PL [2] [mg/dL] | Serum lipid levels TG [2] [mg/dL] | Liver lipid levels Ch, relative to Control (100) [2] | Liver lipid levels PL, relative to Control (100) [2] | Liver lipid levels TG, relative to Control (100) [2] | Relative liver weight, relative to Control (100) [2] | Serum lipid levels Ch, relative to Control (100) [2] | Serum lipid levels PL, relative to Control (100) [2] | Serum lipid levels TG, relative to Control (100) [2] | LD50 (in vivo) [mg/kg] | response vs control in vivo at 100 mg/kg [1, 3] [%] | response vs control in vivo at 100 mg/kg [1, 4] [%] | response vs control in vivo at 100 mg/kg [1, 5] [%] | response vs control in vivo at 100 mg/kg [1, 6] [%] | response vs control in vivo at 100 mg/kg [1, 7] [%] | further results
O=C(OCc1ccc(OCCCCCCc2ccc(Cl)cc2)cc1)c1cccnc1 [n1=6, n2=1, 4-[6-(4-Chlorophenyl)hexyloxy]benzyl nicotinate] | 3.14 ± 0.17 | 38.9 ± 0.8 | 3.03 ± 0.41 | 3.91 ± 0.08 | 54.2 ± 4.9 | 72.2 ± 5.6 | 24 ± 2.1 | 96.7 | 102.4 | 40.7 | 111 | 69.1 | 66.7 | 63.5 | > 4000 | – | – | – | – | – | response vs control in vivo at 100 mg/kg ([1]; 240 h, Table 2, read-out: Liver lipid levels PL, relative to Control (100)): 109%; response vs control in vivo at 100 mg/kg ([1]; Table 2, read-out: Liver lipid levels Ch, relative to Control (100)): 94.4%; response vs control in vivo at 100 mg/kg ([1]; Table 2, read-out: Liver lipid levels TG, relative to Control (100)): 73.9%; response vs control in vivo at 100 mg/kg ([1]; Table 2, read-out: Serum lipid levels Ch, relative to Control (100)): 74.6%; response vs control in vivo at 100 mg/kg ([1]; Table 2, read-out: Serum lipid levels PL, relative to Control (100)): 65.9%; response vs control in vivo at 100 mg/kg ([1]; Table 2, read-out: Serum lipid levels TG, relative to Control (100)): 25.6%; Liver lipid levels Ch ([1]; Table 2): 2.87 ± 0.08 mg/g liver; Liver lipid levels PL ([1]; Table 2): 41.6 ± 0.5 mg/g liver; Liver lipid levels TG ([1]; Table 2): 4.67 ± 0.32 mg/g liver; Relative liver weight ([1]; Table 2): 4.17 ± 0.07 g/100 g b.w.; Serum lipid levels Ch ([1]; Table 2): 64.7 ± 3 mg/dL; Serum lipid levels PL ([1]; Table 2): 97.8 ± 3.8 mg/dL; Serum lipid levels TG ([1]; Table 2): 31.7 ± 2.8 mg/dL; Relative liver weight, relative to Control (100) ([1]; Table 2): 108
O=C(OCCCCCCc1ccc(OCc2ccc(Cl)cc2)cc1)c1cccnc1 [n1=1, n2=6, 6-[4-(4-Chlorobenzyloxy)phenyl]hexyl nicotinate] | 2.83 ± 0.18 | 38.8 ± 1.1 | 5.48 ± 0.93 | 3.91 ± 0.09 | 70 ± 5.5 | 100 ± 5.9 | 33.5 ± 2.5 | 87.1 | 102.1 | 73.7 | 111 | 89.3 | 92.5 | 88.6 | > 4000 | 106 | 107 | 83.7 | 75.3 | 68.9 | response vs control in vivo at 100 mg/kg [1, 8]: 32.1%; Liver lipid levels Ch ([1]; Table 3): 2.48 ± 0.10 mg/g liver; Liver lipid levels PL ([1]; Table 3): 38.5 ± 0.7 mg/g liver; Liver lipid levels TG ([1]; Table 3): 6.01 ± 0.76 mg/g liver; Relative liver weight ([1]; Table 3): 3.72 ± 0.06 g/100 g b.w.; Serum lipid levels Ch ([1]; Table 3): 73.5 ± 2.3 mg/dL; Serum lipid levels PL ([1]; Table 3): 107 ± 3.1 mg/dL; Serum lipid levels TG ([1]; Table 3): 40.3 ± 3.5 mg/dL; Relative liver weight, relative to Control (100) ([1]; Table 3): 98
O=C(OCCCc1ccc(OCc2ccc(Cl)cc2)cc1)c1cccnc1 [n1=1, n2=3, 3-[4-(4-Chlorobenzyloxy)phenyl]propyl nicotinate] | 3.23 ± 0.17 | 38.2 ± 0.5 | 3.80 ± 0.50 | 3.53 ± 0.08 | 66.4 ± 5.3 | 85.8 ± 4.8 | 29.2 ± 1.7 | 99.4 | 100.5 | 51.1 | 100 | 84.7 | 79.3 | 77.2 | > 4000 | 96.1 | 97.8 | 73 | 83.7 | 79.4 | response vs control in vivo at 100 mg/kg [1, 8]: 63.3%; Liver lipid levels Ch ([1]; Table 3): 2.27 ± 0.09 mg/g liver; Liver lipid levels PL ([1]; Table 3): 34.8 ± 0.5 mg/g liver; Liver lipid levels TG ([1]; Table 3): 5.24 ± 0.40 mg/g liver; Relative liver weight ([1]; Table 3): 3.70 ± 0.05 g/100 g b.w.; Serum lipid levels Ch ([1]; Table 3): 81.7 ± 2.7 mg/dL; Serum lipid levels PL ([1]; Table 3): 124 ± 5.5 mg/dL; Serum lipid levels TG ([1]; Table 3): 79.5 ± 10.4 mg/dL; Relative liver weight, relative to Control (100) ([1]; Table 3): 98

— patent US4556715A, “Nicotinic acid derivatives” (Kyorin Pharmaceutical Co., Ltd., priority 1980, dated 1985)
